Measured values taken from patent publication US9018248B2, “Fatty acid derivatives of catechins and methods of their use” (Genesis Group Inc., priority 2010, dated 2015).

How the values were obtained:
[1] = Incorporation into liposomes; type: physicochemical; conditions: 500 μM in ethanol added to MLV, 20 min, 37° C.
Method: Phosphotidylcholine (PC) (25 mg) was dissolved in a small amount of chloroform in a round bottom flask, followed by evaporation of the solvent with a rotary evaporator to obtain a thin layer film on the inner surface of the flask. Trace solvent was removed by nitrogen flush. An aqueous glucose solution (300 mM, 5 ml) was added to the flask, and the content was thoroughly vortexed and sonicated in an ultrosonicator, followed by a repeated freeze-thaw processing (4 times). The liposomal solution was diluted with 45 ml of phosphate buffer saline (PBS, 50 mM, pH7.4) and transferred into a centrifuge tube. The content was centrifuged at 13000 g for 5 min to remove the untrapped glucose. The sediment was re-suspended in 25 ml of PBS to obtain a final liposomal MLV. An aliquot (0.9 ml) of the above MLV was transferred to an Eppendorf tube containing 0.1 ml of test compounds (500 μM in ethanol) or ethanol blank. The content was mixed by vortexing and incubated for 20 min at 37° C. After incubation the mixture was centrifuged at 13000 g for 5 min, and the sediment was washed with 1 ml of 10% ethanol (in PBS), followed by a second centrifugation. The supernatants were combined and absorbance measured at 280 nm. A series of standard solutions in 10% ethanol at different concentrations was prepared for each test compound and their absorbance measured at 280 nm to construct a standard curve (absorbance VS. concentration). The un-incorporated test compounds in the supernatant were quantified using their corresponding standard curve. Percentage incorporation of each compound into the liposomes was calculated according to the following equation: % incorporation=100×(1−amount un-incorporated/amount added)=100×(1−C×2/50) where, C is the concentration of test compounds read from the standard curve. Discussion

COX-2 = COX-2 protein expression in LPS-stimulated RAW 264.7 macrophages (western blot); type: cell-based, murine; conditions: LPS 100 ng/ml, RAW 264.7, western blot
Method: RAW 264.7 cells were cultured in Rosewell Park Memorial Institute (RPMI) 1640 media (without phenol red) supplemented with 10% endotoxin-free, heat-inactivated fetal calf serum, 100 units/ml penicillin, and 100 μg/ml streptomycin. When the cells reached a density of 2-3×10^6 cells/ml, they were activated by incubation in a medium containing E. coli lipopolysaccharide (LPS) (100 ng/ml). Various concentrations of compounds of the disclosure in dimethyl sulphoxide (DMSO) were added together with LPS. Cells were treated with 0.05% DMSO as the vehicle control. The stimulated murine macrophage cell line RAW 264.7 cells were washed with PBS and lysed in an ice-cold RIPA buffer (Tris-HCl, pH 7.2, 25 mM; 0.1% SDS; 1% Triton X-100; 1% sodium deoxycholate; 0.15 M NaCl; 1 mM EDTA) containing 1 mM phenylmethyl sulphonyl fluoride (PMSF), 10 μg/mL aprotinin, 1 mM sodium ortho-vanadate, and 5 μg/mL leupeptin. Protein concentrations were determined using the BCA method (Pierce, Rockford, Ill.). The samples (50 μg of protein) were mixed with 5-fold of sample buffer containing 0.3 M Tris-HCl (pH 6.8), 25% 2-mercaptoethanol, 12% sodium dodecyl sulphate (SDS), 25 mM EDTA, 20% glycerol, and 0.1% bromophenol blue. The mixtures were boiled at 100° C. for 5 min, prerun on a stacking gel, and then resolved by 12% SDS-polyacrylamide minigels at a constant current of 20 mA. For western blot, proteins on the gel were electro-transferred onto a […] immobile polyvinylidene fluoride (PVDF) membrane with a transfer buffer composed of 25 mM Tris-HCl (pH 8.9), 192 mM glycine, and 20% methanol, as described by Pan et al. (2000). Membrane blocking was then carried out at room temperature for 1 h in blocking solution (20 mM Tris-HCl pH 7.4, 125 mM NaCl, 0.2% Tween 20, 1% bovine serum albumin, and 0.1% sodium azide). The membrane was incubated with the primary antibody of iNOS and COX-2 at 4° C. overnight. The membranes were subsequently probed with selected IgG antibody conjugated to horseradish peroxidase (Transduction Laboratories, Lexington, Ky.) and visualized using enhanced chemiluminescence (ECL, Amersham). The densities of the bands were quantitated using a densitometer (AlphaImager 2200 System). All the membranes were stripped and reprobed for β-actin (Sigma Chemical Co., St. Louis, Mo.) as loading control. […] The inhibition of iNOS induction by compounds of the disclosure may be due to down regulation of iNOS gene expression. EGCG and compounds of the disclosure with antioxidant activities may inhibit the ROS/RNS-mediated activation of NF-κB, the transcription factor that promotes gene expression of iNOS. […] The difference in their ability to inhibit production of iNOS and COX-2 may be due to other mechanisms involved in addition to blocking the NF-κB signalling pathway. EGCG and its derivatives may also suppress the cytokine production by breaking down the mRNA and protein of iNOS and COX-2 to varied degrees. (7b) Inhibition Against LPS-Induced NO Production in RAW 264.7 Macrophage The LPS-induced NO production by the macrophages was determined as nitrite concentration in the culture medium according to the Griess reaction. The culture medium of the control and treated cells was collected and centrifuged. An aliquot (100 μL) of the supernatant was mixed with an equal volume of Griess reagent. The absorbance of the mixture at 550 nm was measured with an ELISA plate reader (Dynatech MR-7000; Dynatech Laboratories, Chantilly, Va., USA). […]

Structure (SMILES)	% incorporation into liposomes [1]	Inhibition of COX-2 protein expression (COX-2)
CCC=CCC=CCC=CCC=CCC=CCCCC(=O)Oc1cc(C(=O)OC2Cc3c(O)cc(O)cc3OC2c2cc(OC(=O)CCCC=CCC=CCC=CCC=CCC=CCC)c(O)c(OC(=O)CCCC=CCC=CCC=CCC=CCC=CCC)c2)cc(OC(=O)CCCC=CCC=CCC=CCC=CCC=CCC)c1O (centres unmarked) [Compound 1b]	71.81%	decreased in the order of 1a>1b>EGCG>1c
O=C(O[C@@H]1Cc2c(O)cc(O)cc2O[C@@H]1c1cc(O)c(O)c(O)c1)c1cc(O)c(O)c(O)c1 [EGCG, Epigallocatechin gallate, reference compound]	65.17%	decreased in the order of 1a>1b>EGCG>1c
CCC=CCC=CCC=CCC=CCC=CCC=CCCC(=O)Oc1cc(C(=O)OC2Cc3c(O)cc(O)cc3OC2c2cc(OC(=O)CCC=CCC=CCC=CCC=CCC=CCC=CCC)c(O)c(OC(=O)CCC=CCC=CCC=CCC=CCC=CCC=CCC)c2)cc(OC(=O)CCC=CCC=CCC=CCC=CCC=CCC=CCC)c1O (centres unmarked) [Compound 1c]	80.91%	decreased in the order of 1a>1b>EGCG>1c
CCCCCCCCCCCCCCCCCC(=O)Oc1cc(C(=O)OC2Cc3c(O)cc(O)cc3OC2c2cc(OC(=O)CCCCCCCCCCCCCCCCC)c(O)c(OC(=O)CCCCCCCCCCCCCCCCC)c2)cc(OC(=O)CCCCCCCCCCCCCCCCC)c1O (centres unmarked) [Compound 1a, EGCG stearate]	91.19%	decreased in the order of 1a>1b>EGCG>1c
